Experimental findings from US11161811B2, “Process for preparing Mannich base quaternary ammonium salt high-temperature resistant corrosion inhibitor and applications thereof” (SOUTHWEST PETROLEUM UNIVERSITY, priority 2018, dated 2021) are described below.

The conditions of data set [1]: 0.1 g corrosion inhibitor in 200 mL of 20% hydrochloric acid solution, stirred, dissolution observed.
Data set [2] in a line: 4 h corrosion weight loss test (corrosion inhibition performance). The note with it: P110 carbon steel, 20% hydrochloric acid, 90° C., 1000 ppm corrosion inhibitor. On the procedure: The corrosion inhibition performance of corrosion inhibitors in the embodiments 1 to 4 is determined by a 4 h corrosion weight loss test at 90° C. using 20% hydrochloric acid as a corrosive medium and P110 carbon steels. The amount of corrosion inhibitors is 1000 ppm.

The nature of data set [3]: Compatibility with 20% hydrochloric acid system containing iron ion stabilizer, clay stabilizer and discharge aiding agent. As to conditions: 0.1 g in 20% hydrochloric acid system with citric acid, potassium chloride and OP-10 or fluorocarbon surfactant; 90° C. Type of data set: physicochemical. On the procedure:
The water solubility of the corrosion inhibitor prepared by Embodiments 1 to 4 and its compatibility with the system containing the iron ion stabilizer, clay stabilizer and discharge aiding agent under 90° C. are determined. The process is as follows: weigh 0.1 g of the corrosion inhibitor respectively, and dissolve in 200 mL of 20% hydrochloric acid solution, stir and observe its dissolution. Prepare 20% hydrochloric acid solution system adding with iron ion stabilizer citric acid, clay stabilizer potassium chloride and discharge aiding agent OP-10 or fluorocarbon surfactant, respectively, and then weigh 0.1 g of the corrosion inhibitor and add them to the 20% hydrochloric acid solution system, to observe the compatibility.

Take `O=C(/C=C/c1ccccc1)CC(c1cccc(-c2cccs2)c1)[N+](Cc1ccccc1)(Cc1ccccc1)Cc1ccccc1` (stereo not drawn) [Embodiment 1]: the Water solubility result in data set [1] is recorded as “Soluble reddish brown”. The compound also returned an Inhibition rate in data set [2] of 98.63%. The Compatibility entry in data set [3] was “Uniform and transparent, no”.
Take `O=C(CC(=C(c1ccccc1)c1ccccc1)c1ccccc1)CC(/C=C/c1ccccc1)[N+]1(Cc2ccc3ccccc3c2)CCCCC1C(c1ccccc1)c1ccccc1` (stereo not drawn) [Embodiment 2]: the Water solubility result in data set [1] is on record as “Soluble reddish brown”. Moreover, the Inhibition rate in data set [2] was 97.96%. Besides, the Compatibility result in data set [3] is “Uniform and transparent, no”.
Take `O=C(/C=C/c1ccccc1)CC(/C=C/c1ccccc1)[N+]1(C(c2ccccc2)(c2ccccc2)c2ccccc2)C=Cc2ccccc21` (stereo not drawn) [Embodiment 3]: in data set [1], the Water solubility entry is recorded as “Soluble reddish brown”. Besides, the Inhibition rate in data set [2] is given as 98.59%. Also, the Compatibility result in data set [3] is “Uniform and transparent, no”.
In the case of `CC(O)C[N+](Cc1ccc2ccccc2c1)(CC(C)O)C(CC(=O)CC(=C(c1ccccc1)c1ccccc1)c1ccccc1)c1cccc(-c2cccs2)c1` (stereo not drawn) [Embodiment 4], in data set [1], the Water solubility entry was “Soluble reddish brown”. For the same compound, in data set [2], the Inhibition rate is on record as 98.41%. Moreover, in data set [3], the Compatibility result was “Uniform and transparent, no”.
